Source: paper PMC5218480 (PLoS ONE, 2017)

System: MV-4-11 cells
Assay: Gene expression microarray analysis (Affymetrix PrimeView) and GSEA
Assay type: cell-based, human
Set-up: RFU PODN (11730768_x_at) / Fold change /veh PODN (11730768_x_at) / RFU LINC00158 (11744669_a_at) / Fold change /veh LINC00158 (11744669_a_at) / RFU DUSP10 (11751237_a_at) / Fold change /veh DUSP10 (11751237_a_at) / RFU ID3 (11757404_x_at) / Fold change /veh ID3 (11757404_x_at) / RFU PLEKHG5 (11737974_s_at) / Fold change /veh PLEKHG5 (11737974_s_at) / RFU LRRC4B (11730491_at) / Fold change /veh LRRC4B (11730491_at) / RFU GIMAP4 (11747438_a_at) / Fold change /veh GIMAP4 (11747438_a_at) / RFU KRT8 (11758183_x_at) / Fold change /veh KRT8 (11758183_x_at) / RFU CNN1 (11734310_a_at) / Fold change /veh CNN1 (11734310_a_at) / RFU VPS37D (11726825_at) / Fold change /veh VPS37D (11726825_at) / RFU C10orf10 (11716522_x_at) / Fold change /veh C10orf10 (11716522_x_at) / RFU KIR2DL2 /// KIR2DL4 /// KIR2DL5A /// KIR2DL5B /// KIR2DS1 /// KIR2DS2 /// KIR2DS3 /// KIR2DS4 /// KIR3DL3 /// KIR3DL3 /// KIR3DS1 (11738374_at) / Fold change /veh KIR2DL2 /// KIR2DL4 /// KIR2DL5A /// KIR2DL5B /// KIR2DS1 /// KIR2DS2 /// KIR2DS3 /// KIR2DS4 /// KIR3DL3 /// KIR3DL3 /// KIR3DS1 (11738374_at) / RFU C1QL1 (11718748_at) / Fold change /veh C1QL1 (11718748_at) / RFU TMPRSS4 (11747572_a_at) / Fold change /veh TMPRSS4 (11747572_a_at) / RFU HAMP (11756126_x_at) / Fold change /veh HAMP (11756126_x_at) / RFU RNFT2 (11725882_a_at) / Fold change /veh RNFT2 (11725882_a_at) / RFU NR4A2 (11747474_a_at) / Fold change /veh NR4A2 (11747474_a_at) / RFU ABCC12 (11746883_a_at) / Fold change /veh ABCC12 (11746883_a_at) / RFU TMEM136 (11760407_x_at) / Fold change /veh TMEM136 (11760407_x_at) / RFU CLDN22 /// WWC2 (11732394_at) / Fold change /veh CLDN22 /// WWC2 (11732394_at) / RFU HLA-DPB1 (11760878_x_at) / Fold change /veh HLA-DPB1 (11760878_x_at) / RFU SPINT1 (11716480_a_at) / Fold change /veh SPINT1 (11716480_a_at) / RFU GAP43 (11754022_s_at) / Fold change /veh GAP43 (11754022_s_at) / RFU A4GNT (11735810_at) / Fold change /veh A4GNT (11735810_at) / RFU PRB3 (11715151_x_at) / Fold change /veh PRB3 (11715151_x_at) / RFU TUBB4B (11761932_at) / Fold change /veh TUBB4B (11761932_at) / RFU CAPN14 (11732068_a_at) / Fold change /veh CAPN14 (11732068_a_at) / RFU TMCC2 (11721928_a_at) / Fold change /veh TMCC2 (11721928_a_at) / RFU IRGQ (11745062_a_at) / Fold change /veh IRGQ (11745062_a_at) / RFU FAM174B (11720279_a_at) / Fold change /veh FAM174B (11720279_a_at) / RFU TMPRSS4 (11748680_a_at) / Fold change /veh TMPRSS4 (11748680_a_at) / RFU FAM212B (11763350_a_at) / Fold change /veh FAM212B (11763350_a_at) / RFU PLEKHG5 (11743358_a_at) / Fold change /veh PLEKHG5 (11743358_a_at) / RFU ZSCAN30 (11745921_a_at) / Fold change /veh ZSCAN30 (11745921_a_at) / RFU CMKLR1 (11741424_a_at) / Fold change /veh CMKLR1 (11741424_a_at) / RFU LOC101060620 /// MAPK8IP1 (11723275_at) / Fold change /veh LOC101060620 /// MAPK8IP1 (11723275_at) / RFU SPTSSB (11747773_x_at) / Fold change /veh SPTSSB (11747773_x_at) / RFU PRSS12 (11739890_at) / Fold change /veh PRSS12 (11739890_at) / RFU BIN1 (11741810_x_at) / Fold change /veh BIN1 (11741810_x_at) / RFU WNT11 (11732464_a_at) / Fold change /veh WNT11 (11732464_a_at) / RFU C10orf10 (11716521_a_at) / Fold change /veh C10orf10 (11716521_a_at) / RFU C5orf56 (11738089_at) / Fold change /veh C5orf56 (11738089_at) / RFU CYB561 (11721691_x_at) / Fold change /veh CYB561 (11721691_x_at) / RFU ANKRD19P (11752326_a_at) / Fold change /veh ANKRD19P (11752326_a_at) / RFU OR2T12 /// OR2T33 /// OR2T8 (11738714_s_at) / Fold change /veh OR2T12 /// OR2T33 /// OR2T8 (11738714_s_at) / RFU VCAN (11748164_a_at) / Fold change /veh VCAN (11748164_a_at) / RFU JSRP1 (11732532_at) / Fold change /veh JSRP1 (11732532_at) / RFU KRTAP10-11 (11738290_x_at) / Fold change /veh KRTAP10-11 (11738290_x_at) / RFU MYO3A (11730013_a_at) / Fold change /veh MYO3A (11730013_a_at) / RFU EBF3 (11725865_a_at) / Fold change /veh EBF3 (11725865_a_at) / RFU CAMK2N1 (11719241_x_at) / Fold change /veh CAMK2N1 (11719241_x_at) / RFU C5orf56 (11738088_a_at) / Fold change /veh C5orf56 (11738088_a_at) / RFU OLFML3 (11715873_a_at) / Fold change /veh OLFML3 (11715873_a_at) / RFU LOC100653217 /// NTM (11731650_a_at) / Fold change /veh LOC100653217 /// NTM (11731650_a_at) / RFU MAPK11 (11762145_a_at) / Fold change /veh MAPK11 (11762145_a_at) / RFU FIZ1 (11724087_x_at) / Fold change /veh FIZ1 (11724087_x_at) / RFU OASL (11726364_x_at) / Fold change /veh OASL (11726364_x_at) / RFU SOX15 (11748057_x_at) / Fold change /veh SOX15 (11748057_x_at) / RFU CD79A (11719716_a_at) / Fold change /veh CD79A (11719716_a_at) / RFU HIST1H1D (11736915_at) / Fold change /veh HIST1H1D (11736915_at) / RFU CASKIN2 (11723855_a_at) / Fold change /veh CASKIN2 (11723855_a_at) / RFU LOC730098 (11760151_x_at) / Fold change /veh LOC730098 (11760151_x_at) / RFU OR4N2 (11742367_at) / Fold change /veh OR4N2 (11742367_at) / RFU PRRT2 (11749266_a_at) / Fold change /veh PRRT2 (11749266_a_at) / RFU SNX32 (11753110_a_at) / Fold change /veh SNX32 (11753110_a_at) / RFU CDHR5 (11726645_a_at) / Fold change /veh CDHR5 (11726645_a_at) / RFU RCAN1 (11760418_a_at) / Fold change /veh RCAN1 (11760418_a_at) / RFU FAM167A (11723789_a_at) / Fold change /veh FAM167A (11723789_a_at) / RFU FAM26E (11764081_at) / Fold change /veh FAM26E (11764081_at) / RFU ISYNA1 (11749810_s_at) / Fold change /veh ISYNA1 (11749810_s_at) / RFU ACY1 (11761880_at) / Fold change /veh ACY1 (11761880_at) / RFU 11764098_at / Fold change /veh 11764098_at / RFU SAMD14 (11745864_x_at) / Fold change /veh SAMD14 (11745864_x_at) / RFU NPB (11741838_a_at) / Fold change /veh NPB (11741838_a_at) / RFU TMPRSS6 (11731388_a_at) / Fold change /veh TMPRSS6 (11731388_a_at) / RFU KRTAP10-2 (11738614_at) / Fold change /veh KRTAP10-2 (11738614_at) / RFU ARHGAP8 /// PRR5-ARHGAP8 (11727945_x_at) / Fold change /veh ARHGAP8 /// PRR5-ARHGAP8 (11727945_x_at) / RFU KRTAP5-7 /// NADSYN1 (11734609_at) / Fold change /veh KRTAP5-7 /// NADSYN1 (11734609_at) / RFU RASL12 (11751679_a_at) / Fold change /veh RASL12 (11751679_a_at) / RFU CDKN2B (11736163_a_at) / Fold change /veh CDKN2B (11736163_a_at) / RFU PRF1 (11729649_at) / Fold change /veh PRF1 (11729649_at) / RFU, ZNF638 /// ZNF638-IT1 / Fold change vs veh, ZNF638 /// ZNF638-IT1 / RFU, PANK3 / Fold change vs veh, PANK3 / RFU, SH3YL1 / Fold change vs veh, SH3YL1 / RFU, ZEB2 / Fold change vs veh, ZEB2 / RFU, NRIP1 / Fold change vs veh, NRIP1 / RFU, PTTG1IP / Fold change vs veh, PTTG1IP / RFU, CAPN2 / Fold change vs veh, CAPN2 / RFU, MED14 / Fold change vs veh, MED14 / RFU, SNORA58 / Fold change vs veh, SNORA58 / RFU, C1orf63 / Fold change vs veh, C1orf63 / RFU, LRRFIP1 / Fold change vs veh, LRRFIP1 / RFU, NDUFAF7 / Fold change vs veh, NDUFAF7 / RFU, SLC12A2 / Fold change vs veh, SLC12A2 / RFU, IBTK / Fold change vs veh, IBTK / RFU, ESF1 / Fold change vs veh, ESF1 / Fold change vs veh, TMEM50B / RFU, TAOK1 / Fold change vs veh, TAOK1 / RFU, ACBD3 / Fold change vs veh, ACBD3 / RFU, TMA16 / Fold change vs veh, TMA16 / RFU, RWDD3 / Fold change vs veh, RWDD3 / RFU, BCAT1 / Fold change vs veh, BCAT1 / RFU, EDEM3 / Fold change vs veh, EDEM3 / RFU, TMEM33 / Fold change vs veh, TMEM33 / RFU, WDR75 / Fold change vs veh, WDR75 / RFU, AHCTF1 / Fold change vs veh, AHCTF1 / RFU, TFRC / Fold change vs veh, TFRC / RFU, ZDHHC17 / Fold change vs veh, ZDHHC17 / RFU, NOM1 / Fold change vs veh, NOM1 / RFU, ARL8B / Fold change vs veh, ARL8B / RFU, ZBTB11 / Fold change vs veh, ZBTB11 / RFU, TAMM41 / Fold change vs veh, TAMM41 / RFU, KIAA1704 /// LOC100996395 / Fold change vs veh, KIAA1704 /// LOC100996395 / RFU, ING1 / Fold change vs veh, ING1 / RFU, TRMT61B / Fold change vs veh, TRMT61B / RFU, FUBP3 / Fold change vs veh, FUBP3 / RFU, TP53 / Fold change vs veh, TP53 / RFU, TNKS2 / Fold change vs veh, TNKS2 / RFU, ZFP14 / Fold change vs veh, ZFP14 / RFU, ACTR2 / Fold change vs veh, ACTR2 / RFU, PPP3R1 / Fold change vs veh, PPP3R1 / RFU, PIK3R1 / Fold change vs veh, PIK3R1 / RFU, HNRNPA1 / Fold change vs veh, HNRNPA1 / RFU, RNF170 / Fold change vs veh, RNF170 / RFU, ZNF28 / Fold change vs veh, ZNF28 / RFU, RNGTT / Fold change vs veh, RNGTT / RFU, OGT / Fold change vs veh, OGT / RFU, BRD1 / Fold change vs veh, BRD1 / RFU, MARS / Fold change vs veh, MARS / RFU, ZNF655 / Fold change vs veh, ZNF655 / RFU, FAHD1 / Fold change vs veh, FAHD1 / RFU, BDP1 / Fold change vs veh, BDP1 / RFU, LRRCC1 / Fold change vs veh, LRRCC1 / RFU, ARID1A / Fold change vs veh, ARID1A / RFU, ZNF146 / Fold change vs veh, ZNF146 / RFU, ZNF330 / Fold change vs veh, ZNF330 / RFU, GPN3 / Fold change vs veh, GPN3 / RFU, C9orf123 / Fold change vs veh, C9orf123 / RFU, N4BP2L2 / Fold change vs veh, N4BP2L2 / RFU, ARFIP1 / Fold change vs veh, ARFIP1 / RFU, FAM179B / Fold change vs veh, FAM179B / RFU, BCL10 / Fold change vs veh, BCL10 / RFU, UHRF1BP1L / Fold change vs veh, UHRF1BP1L / RFU, BET1 / Fold change vs veh, BET1 / RFU, CNOT2 / Fold change vs veh, CNOT2 / RFU, ZNF268 / Fold change vs veh, ZNF268 / Fold change vs veh, ZNF507 / RFU, DGCR2 / Fold change vs veh, DGCR2 / RFU, WDSUB1 / Fold change vs veh, WDSUB1 / Fold change vs veh, HSP90B1 /// MIR3652 / RFU, ADSS / Fold change vs veh, ADSS / RFU, GK / Fold change vs veh, GK / RFU, ZNF148 / Fold change vs veh, ZNF148 / RFU, TAF9 / Fold change vs veh, TAF9 / RFU, SLC1A5 / Fold change vs veh, SLC1A5 / RFU, SLMO2 / Fold change vs veh, SLMO2 / RFU, ABCC4 / Fold change vs veh, ABCC4 / RFU, LOC101060439 /// RAP1B / Fold change vs veh, LOC101060439 /// RAP1B / RFU, RFX7 / Fold change vs veh, RFX7 / RFU, GTPBP10 / Fold change vs veh, GTPBP10 / RFU, CNEP1R1 / Fold change vs veh, CNEP1R1 / RFU, BIVM-ERCC5 /// ERCC5 / Fold change vs veh, BIVM-ERCC5 /// ERCC5 / RFU, ILF3 / Fold change vs veh, ILF3 / RFU 11762660_at / Fold change /veh 11762660_at / RFU VCAN (11757783_s_at) / Fold change /veh VCAN (11757783_s_at) / RFU DDX43 (11728927_at) / Fold change /veh DDX43 (11728927_at) / RFU KRT8 (11758188_x_at) / Fold change /veh KRT8 (11758188_x_at) / RFU NKD1 (11759106_at) / Fold change /veh NKD1 (11759106_at) / RFU SRD5A1 (11742802_a_at) / Fold change /veh SRD5A1 (11742802_a_at) / RFU TPSAB1 /// TPSB2 (11721975_s_at) / Fold change /veh TPSAB1 /// TPSB2 (11721975_s_at) / RFU GSTM3 (11746129_a_at) / Fold change /veh GSTM3 (11746129_a_at) / RFU IL23R (11737362_x_at) / Fold change /veh IL23R (11737362_x_at) / RFU TMEM51 (11727254_a_at) / Fold change /veh TMEM51 (11727254_a_at) / RFU PIWIL2 (11732686_x_at) / Fold change /veh PIWIL2 (11732686_x_at) / RFU ORM1 (11744905_x_at) / Fold change /veh ORM1 (11744905_x_at) / RFU CCDC152 (11743942_at) / Fold change /veh CCDC152 (11743942_at) / RFU ECM1 (11717891_a_at) / Fold change /veh ECM1 (11717891_a_at) / RFU IL23R (11748794_a_at) / Fold change /veh IL23R (11748794_a_at) / RFU TNFAIP8L3 (11732012_x_at) / Fold change /veh TNFAIP8L3 (11732012_x_at) / RFU MBOAT4 (11741988_at) / Fold change /veh MBOAT4 (11741988_at) / RFU 11764193_at / Fold change /veh 11764193_at / RFU TMEM53 (11763286_at) / Fold change /veh TMEM53 (11763286_at) / RFU MAGEB2 (11727129_at) / Fold change /veh MAGEB2 (11727129_at) / RFU TMEM200A (11744735_a_at) / Fold change /veh TMEM200A (11744735_a_at) / RFU CCDC152 (11751479_a_at) / Fold change /veh CCDC152 (11751479_a_at) / RFU FAM211A (11726209_a_at) / Fold change /veh FAM211A (11726209_a_at) / RFU RGS16 (11746705_a_at) / Fold change /veh RGS16 (11746705_a_at) / RFU VCAN (11755009_s_at) / Fold change /veh VCAN (11755009_s_at) / RFU RHOB (11743442_s_at) / Fold change /veh RHOB (11743442_s_at) / RFU RGS16 (11720943_a_at) / Fold change /veh RGS16 (11720943_a_at) / RFU RGS16 (11720944_at) / Fold change /veh RGS16 (11720944_at) / RFU, VPS4B / Fold change vs veh, VPS4B / RFU, CREB1 / Fold change vs veh, CREB1 / RFU, DNAJC13 / Fold change vs veh, DNAJC13 / RFU, GNAQ / Fold change vs veh, GNAQ / RFU, CDK5R1 / Fold change vs veh, CDK5R1 / RFU, ZRANB3 / Fold change vs veh, ZRANB3 / RFU, CUL4A / Fold change vs veh, CUL4A / RFU, CCNY / Fold change vs veh, CCNY / RFU, UFL1 / Fold change vs veh, UFL1 / RFU, COG3 / Fold change vs veh, COG3 / RFU, DIAPH2 / Fold change vs veh, DIAPH2 / RFU, SKA2 / Fold change vs veh, SKA2 / RFU, AFF3 / Fold change vs veh, AFF3 / RFU, LMF1 / Fold change vs veh, LMF1 / RFU, IPO11 / Fold change vs veh, IPO11 / RFU, DFFB / Fold change vs veh, DFFB / RFU, FOXP1 / Fold change vs veh, FOXP1 / RFU, CARD8 / Fold change vs veh, CARD8 / RFU, STRN3 / Fold change vs veh, STRN3 / RFU, ADK / Fold change vs veh, ADK / RFU, RASSF2 / Fold change vs veh, RASSF2 / RFU, WIPF1 / Fold change vs veh, WIPF1 / RFU, LARP1B / Fold change vs veh, LARP1B / RFU, RASA1 / Fold change vs veh, RASA1 / RFU, RB1 / Fold change vs veh, RB1 / RFU, PPFIA1 / Fold change vs veh, PPFIA1 / RFU, MAT2A / Fold change vs veh, MAT2A / RFU, CCT5 / Fold change vs veh, CCT5 / RFU, WDR92 / Fold change vs veh, WDR92 / RFU, CUX1 / Fold change vs veh, CUX1 / RFU, TTC7A / Fold change vs veh, TTC7A / RFU, TMEM135 / Fold change vs veh, TMEM135 / RFU, DEPTOR / Fold change vs veh, DEPTOR / RFU, CPM / Fold change vs veh, CPM / RFU, DNAJB6 / Fold change vs veh, DNAJB6 / RFU, CACNA2D3 / Fold change vs veh, CACNA2D3 / RFU, DTX4 / Fold change vs veh, DTX4 / RFU, TFCP2 / Fold change vs veh, TFCP2 / RFU, GMCL1 /// GMCL1P1 / Fold change vs veh, GMCL1 /// GMCL1P1 / RFU, AEBP2 / Fold change vs veh, AEBP2 / RFU, SNHG1 /// SNORD22 /// SNORD25 /// SNORD26 /// SNORD27 /// SNORD28 /// SNORD29 /// SNORD31 / Fold change vs veh, SNHG1 /// SNORD22 /// SNORD25 /// SNORD26 /// SNORD27 /// SNORD28 /// SNORD29 /// SNORD31 / Fold change (Aza/veh), C12orf56 (ProbeSet 11735607_a_at) / Fold change (ACY-1035/veh), C12orf56 (ProbeSet 11735607_a_at) / Fold change (Aza/veh), FGFR1OP (ProbeSet 11751329_s_at) / Fold change (ACY-1035/veh), FGFR1OP (ProbeSet 11751329_s_at) / Fold change (Aza/veh), VPS36 (ProbeSet 11739960_a_at) / Fold change (ACY-1035/veh), VPS36 (ProbeSet 11739960_a_at) / RFU SYPL1 (11715823_x_at) / Fold change /veh SYPL1 (11715823_x_at) / RFU IGFBP7 (11715501_s_at) / Fold change /veh IGFBP7 (11715501_s_at) / RFU REEP3 (11722064_at) / Fold change /veh REEP3 (11722064_at) / RFU IGLL1 (11728026_x_at) / Fold change /veh IGLL1 (11728026_x_at): dose or concentration left out as unconfirmed
Details: MV-4-11 cells, 48 hours

In the case of Nc1ccc(-c2cccs2)cc1NC(=O)c1ccc2c(c1)cc(C1CC1)n2CCN1CCOCC1 [ACY-1035], the “RFU NPB (11741838_a_at)” value is reported as 77.64 RFU.
